In patent publication US8440710B2, “HSL inhibitors useful in the treatment of diabetes” (Hoffmann-La Roche Inc., priority 2009, dated 2013) one finds IC50 data, which are given here for 23 molecules.

By IC50 is commonly meant the concentration that gives 50% inhibition.

The target of this experiment is T1, human HSL (Homo sapiens, UniProt Q05469).
T1 construct: generate a full length human HSL ORF with a 3′-His6 tag; made in house; host or cells: High 5 insect cells (baculovirus, pFast-BAC)
T1 sequence (Q05469 1-1076): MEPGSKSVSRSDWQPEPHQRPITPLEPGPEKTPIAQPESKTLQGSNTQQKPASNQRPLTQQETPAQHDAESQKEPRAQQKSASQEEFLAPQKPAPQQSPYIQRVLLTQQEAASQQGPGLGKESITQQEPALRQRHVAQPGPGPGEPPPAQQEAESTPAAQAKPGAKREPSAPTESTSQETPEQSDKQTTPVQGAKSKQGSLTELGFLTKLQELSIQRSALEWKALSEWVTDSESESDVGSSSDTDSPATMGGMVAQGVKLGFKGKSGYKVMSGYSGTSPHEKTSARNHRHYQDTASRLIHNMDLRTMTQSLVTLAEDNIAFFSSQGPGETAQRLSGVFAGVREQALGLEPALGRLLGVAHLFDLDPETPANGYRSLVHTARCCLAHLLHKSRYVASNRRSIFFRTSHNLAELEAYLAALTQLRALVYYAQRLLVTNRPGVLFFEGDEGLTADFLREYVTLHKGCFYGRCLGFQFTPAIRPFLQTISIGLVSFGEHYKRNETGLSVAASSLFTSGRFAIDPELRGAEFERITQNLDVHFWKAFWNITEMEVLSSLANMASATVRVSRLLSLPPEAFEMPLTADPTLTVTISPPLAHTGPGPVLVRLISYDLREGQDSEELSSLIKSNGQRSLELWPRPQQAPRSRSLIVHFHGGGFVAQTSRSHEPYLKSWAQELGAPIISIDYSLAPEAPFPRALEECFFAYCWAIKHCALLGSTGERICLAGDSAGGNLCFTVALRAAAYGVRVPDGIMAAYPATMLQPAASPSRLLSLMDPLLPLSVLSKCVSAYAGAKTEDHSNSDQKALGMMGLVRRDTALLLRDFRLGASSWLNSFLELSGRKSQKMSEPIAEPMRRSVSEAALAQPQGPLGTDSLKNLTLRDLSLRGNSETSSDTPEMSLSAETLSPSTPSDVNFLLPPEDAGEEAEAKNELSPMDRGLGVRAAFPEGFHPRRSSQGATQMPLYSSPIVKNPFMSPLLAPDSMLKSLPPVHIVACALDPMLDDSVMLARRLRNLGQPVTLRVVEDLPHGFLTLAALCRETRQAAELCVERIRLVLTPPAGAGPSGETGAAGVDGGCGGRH
Briefly: Human Hormone-Sensitive Lipase (HSL) enzyme inhibition assay (colorimetric, DMPT substrate). The format is biochemical. As to conditions: human full length HSL-His6, 2,3-dimercapto-1-propanol tributyrate substrate, 37° C. 20 minutes, absorbance at 405 nm; read-out: HSL hum IC50. In outline:
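Full-length human HSL with C-terminal His6, expressed in baculovirus-infected High 5 cells and Ni-NTA purified, was added (15 ug/ml stock) to 1.5 mM DMPT in 100 mM MOPS pH 7.2, 0.2 mg/ml fatty acid-free BSA containing compound. After 20 min at 37 °C, DTNB with SDS/Triton X-100 was added; A405 read after 15 min at RT.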

For the molecule `CCC[C@]1(O)CC[C@]2(CCN(c3ccc(O[C@H](C)C(F)(F)F)cc3)C2=O)CC1` [Example 164b, (5α,8α)-8-Hydroxy-8-propyl-2-[4-((R)-2,2,2-trifluoro-1-methyl-ethoxy)-phenyl]-2-aza-spiro[4.5]decan-1-one], the IC50 turned out to be 20 nM.

Turning to `CC[C@]1(O)CC[C@]2(CCN(c3ccc(OC(C)C(F)(F)F)cc3)C2=O)CC1` (stereo partly drawn) [Example 165, (5α,8α)-8-Ethyl-8-hydroxy-2-[4-(2,2,2-trifluoro-1-methyl-ethoxy)-phenyl]-2-aza-spiro[4.5]decan-1-one], the IC50 came out at 20 nM.

Turning to `CC[C@]1(O)CC[C@]2(CCN(c3ccc(O[C@@H](C)C(F)(F)F)cc3)C2=O)CC1` [Example 165a, (5α,8α)-8-Ethyl-8-hydroxy-2-[4-((S)-2,2,2-trifluoro-1-methyl-ethoxy)-phenyl]-2-aza-spiro[4.5]decan-1-one], the IC50 was 20 nM.

Regarding `CC[C@]1(O)CC[C@]2(CCN(c3ccc(O[C@H](C)C(F)(F)F)cc3)C2=O)CC1` [Example 165b, (5α,8α)-8-Ethyl-8-hydroxy-2-[4-((R)-2,2,2-trifluoro-1-methyl-ethoxy)-phenyl]-2-aza-spiro[4.5]decan-1-one], the IC50 amounted to 30 nM.

`O=C1N(c2ccc(OCC(F)(F)F)nc2)CC[C@]12CC[C@@](O)(CCC(F)(F)F)CC2` [Example 166, (5α,8α)-8-Hydroxy-2-[6-(2,2,2-trifluoro-ethoxy)-pyridin-3-yl]-8-(3,3,3-trifluoro-propyl)-2-aza-spiro[4.5]decan-1-one]: the IC50 stood at 40 nM.

As for `CCC[C@]1(O)CC[C@]2(CCN(c3ccc(OCC(F)(F)F)nc3)C2=O)CC1` [Example 167, (5α,8α)-8-Hydroxy-8-propyl-2-[6-(2,2,2-trifluoro-ethoxy)-pyridin-3-yl]-2-aza-spiro[4.5]decan-1-one], the IC50 was found to be 40 nM.

For the molecule `CC[C@]1(O)CC[C@]2(CCN(c3ccc(OCC(F)(F)F)nc3)C2=O)CC1` [Example 168, (5α,8α)-8-Ethyl-8-hydroxy-2-[6-(2,2,2-trifluoro-ethoxy)-pyridin-3-yl]-2-aza-spiro[4.5]decan-1-one], the 50% inhibitory concentration (IC50) came out at 70 nM.

In the case of `CC[C@]1(O)CC[C@]2(CCN(c3ccc(CCC(F)(F)F)cc3)C2=O)CC1` [Example 169, (5α,8α)-8-Ethyl-8-hydroxy-2-[4-(3,3,3-trifluoro-propyl)-phenyl]-2-aza-spiro[4.5]decan-1-one], the IC50 was found to be 50 nM.

On to `CCC[C@]1(O)CC[C@]2(CCN(c3ccc(CCC(F)(F)F)cc3)C2=O)CC1` [Example 170, (5α,8α)-8-Hydroxy-8-propyl-2-[4-(3,3,3-trifluoro-propyl)-phenyl]-2-aza-spiro[4.5]decan-1-one], for which the half-maximal inhibitory concentration (IC50) stood at 50 nM.

Take `CC[C@]1(O)CC[C@]2(CCN(c3ccc(O[C@@H](C)C(F)(F)F)nc3)C2=O)CC1` [Example 171, (5α,8α)-8-Ethyl-8-hydroxy-2-[6-((S)-2,2,2-trifluoro-1-methyl-ethoxy)-pyridin-3-yl]-2-aza-spiro[4.5]decan-1-one]: the IC50 amounted to 30 nM.

With `CCC[C@]1(O)CC[C@]2(CCN(c3ccc(O[C@@H](C)C(F)(F)F)nc3)C2=O)CC1` [Example 172, (5α,8α)-8-Hydroxy-8-propyl-2-[6-((S)-2,2,2-trifluoro-1-methyl-ethoxy)-pyridin-3-yl]-2-aza-spiro[4.5]decan-1-one], the IC50 came out at 20 nM.

With `C[C@H](Oc1ccc(N2CC[C@]3(CC[C@@](O)(C(F)(F)F)CC3)C2=O)cn1)C(F)(F)F` [Example 173, (5α,8α)-8-Hydroxy-8-trifluoromethyl-2-[6-((S)-2,2,2-trifluoro-1-methyl-ethoxy)-pyridin-3-yl]-2-aza-spiro[4.5]decan-1-one], the IC50 was found to be 50 nM.

On to `C[C@@H](Oc1ccc(N2CC[C@]3(CC[C@@](O)(C(F)(F)F)CC3)C2=O)cn1)C(F)(F)F` [Example 174, (5α,8α)-8-Hydroxy-8-trifluoromethyl-2-[6-((R)-2,2,2-trifluoro-1-methyl-ethoxy)-pyridin-3-yl]-2-aza-spiro[4.5]decan-1-one], for which the concentration for half-maximal inhibition (IC50) worked out at 60 nM.

As for `CC[C@]1(O)CC[C@]2(CCN(c3ccc(O[C@H](C)C(F)(F)F)nc3)C2=O)CC1` [Example 175, (5α,8α)-8-Ethyl-8-hydroxy-2-[6-((R)-2,2,2-trifluoro-1-methyl-ethoxy)-pyridin-3-yl]-2-aza-spiro[4.5]decan-1-one], the IC50 stood at 40 nM.

Regarding `CCC[C@]1(O)CC[C@]2(CCN(c3ccc(O[C@H](C)C(F)(F)F)nc3)C2=O)CC1` [Example 176, (5α,8α)-8-Hydroxy-8-propyl-2-[6-((R)-2,2,2-trifluoro-1-methyl-ethoxy)-pyridin-3-yl]-2-aza-spiro[4.5]decan-1-one], the IC50 was 20 nM.

For the molecule `CC(Oc1ccc(N2CC[C@]3(CC[C@@](O)(C(F)(F)F)CC3)C2=O)cc1)C(F)(F)F` (stereo partly drawn) [Example 177, (5α,8α)-8-Hydroxy-8-trifluoromethyl-2-[4-(2,2,2-trifluoro-1-methyl-ethoxy)-phenyl]-2-aza-spiro[4.5]decan-1-one], the half-maximal inhibitory concentration (IC50) is 30 nM.

Take `C[C@H](Oc1ccc(N2CC[C@]3(CC[C@@](O)(C(F)(F)F)CC3)C2=O)cc1)C(F)(F)F` [Example 177a, (5α,8α)-8-Hydroxy-8-trifluoromethyl-2-[4-((S)-2,2,2-trifluoro-1-methyl-ethoxy)-phenyl]-2-aza-spiro[4.5]decan-1-one]: the IC50 was found to be 40 nM.

For the molecule `C[C@@H](Oc1ccc(N2CC[C@]3(CC[C@@](O)(C(F)(F)F)CC3)C2=O)cc1)C(F)(F)F` [Example 177b, (5α,8α)-8-Hydroxy-8-trifluoromethyl-2-[4-((R)-2,2,2-trifluoro-1-methyl-ethoxy)-phenyl]-2-aza-spiro[4.5]decan-1-one], the half-inhibitory concentration (IC50) worked out at 40 nM.

For `O=C1N(c2ccc(OCC(F)(F)F)nc2)CC[C@]12CC[C@@](O)(C(F)(F)F)CC2` [Example 178, (5α,8α)-8-Hydroxy-2-[6-(2,2,2-trifluoro-ethoxy)-pyridin-3-yl]-8-trifluoromethyl-2-aza-spiro[4.5]decan-1-one], the IC50 is 150 nM.

For the molecule `C[C@@H](Oc1ccc(N2CC[C@]3(CC[C@@](O)(C4CC4)CC3)C2=O)cn1)C(F)(F)F` [Example 179, (5α,8α)-8-Cyclopropyl-8-hydroxy-2-[6-((R)-2,2,2-trifluoro-1-methyl-ethoxy)-pyridin-3-yl]-2-aza-spiro[4.5]decan-1-one], the IC50 was 30 nM.

As to `C[C@H](Oc1ccc(N2CC[C@]3(CC[C@@](O)(C4CC4)CC3)C2=O)cn1)C(F)(F)F` [Example 180, (5α,8α)-8-Cyclopropyl-8-hydroxy-2-[6-((S)-2,2,2-trifluoro-1-methyl-ethoxy)-pyridin-3-yl]-2-aza-spiro[4.5]decan-1-one], the IC50 was 30 nM.

Regarding `CC(Oc1ccc(N2CC[C@]3(CC[C@@](O)(C4CC4)CC3)C2=O)cc1)C(F)(F)F` (stereo partly drawn) [Example 181, (5α,8α)-8-Cyclopropyl-8-hydroxy-2-[4-(2,2,2-trifluoro-1-methyl-ethoxy)-phenyl]-2-aza-spiro[4.5]decan-1-one], the IC50 turned out to be 20 nM.

Regarding `C[C@@H](Oc1ccc(N2CC[C@]3(CC[C@@](O)(C4CC4)CC3)C2=O)cc1)C(F)(F)F` [Example 181a, (5α,8α)-8-Cyclopropyl-8-hydroxy-2-[4-((R)-2,2,2-trifluoro-1-methyl-ethoxy)-phenyl]-2-aza-spiro[4.5]decan-1-one], the IC50 was 20 nM.
